Experimental data reported in patent EP0469683A1, “Derivatives of 4-amino-1-methyltetralins, their preparation and their application in therapy” (LABORATOIRES LUCIEN, Société Anonyme :, priority 1990, dated 1992).
Marks after values point to notes of the source that are not given here.

What was measured:
Format in all cases: in vivo
[1] = tested on: souris; test: Abdominal cramps test (writhing test), acetic acid i.p.; settings: oral administration; for activité par voie orale: 16 mg/kg
[2] = tested on: souris; test: Acute toxicity: mortality after single intraperitoneal administration of increasing doses; settings: mouse
Procedure: La détermination de la mortalité chez la souris est observée à la suite de l'administration unique par voie intrapéritonéale de doses croissantes de composés à tester.
La dose limite DL100 pour les composés étudiés est supérieure ou égale à 100 mg/kg. Les doses DLO et DL100 des composés 27, 32 et 36 sont rassemblées dans le tableau 2: […]

[3] = tested on: souris; test: Abdominal cramps test (writhing test), acetic acid i.p.; settings: for Degré de protection par rapport aux témoins: hydrochloride, 30 min before acetic acid; for résultats des tests complémentaires (crampes abdominales): other racemic diastereomer compared with the one shown in Tableau 4; for Degré de protection par rapport aux témoins à 30´ / Degré de protection par rapport aux témoins à 1 h / Degré de protection par rapport aux témoins à 2 h / Degré de protection par rapport aux témoins à 4 h / Degré de protection par rapport aux témoins à 6 h: 4 mg/kg; for Degré de protection par rapport aux témoins à 30´: reading at 30 min; for Degré de protection par rapport aux témoins à 1 h: reading at 1 h; for Degré de protection par rapport aux témoins à 2 h: reading at 2 h; for Degré de protection par rapport aux témoins à 4 h: reading at 4 h; for Degré de protection par rapport aux témoins à 6 h: reading at 6 h
Procedure: Ce test, également connu sous le nom de WRITHING TEST, utilisé pour la sélection d'analgésiques/antalgiques à effet périphérique, consiste à rechercher une éventuelle protection vis-à-vis des crampes et/ou contorsions abdominales provoquées, chez la souris, par l'injection intrapéritonéale d'acide acétique.
Les composés ont été administrés sous forme de chlorhydrate par voie intrapéritonéale 30 minutes avant l'acide acétique.
Du point de vue cinétique de l'activité antalgique, des tests de crampes abdominales ont été poursuivis dans le temps avec des relevés à 30 minutes, 1 heure, 2 heures, 4 heures et 6 heures.

[4] = tested on: souris; test: Hot plate test (56 C), reaction time to thermal pain stimulus; settings: hydrochloride, 1 h after administration
From the text: Cet essai consiste à mesurer le temps d'apparition d'une réaction au stimulus thermoalgique chez la souris.
L'animal est placé sur une plaque métallique portée à une température constante de 56 C. […] Après administration d'un analgésique, le délai d'apparition du réflexe s'allonge: on obtient une élévation de réaction du seuil.
Les composés ont été administrés par voie intrapéritonéale sous forme de chlorhydrate et testés sur les animaux 1 heure après leur administration. Les résultats sont donnés sur quelques exemples dans le tableau 3 suivant un pourcentage de variation du temps de réaction moyen après traitement par rapport à avant traitement.

[5] = tested on: rat; test: Carrageenan-induced hind paw oedema (plethysmometer); settings: 15 mg/kg, given 1 h before carrageenan; for % d'inhibitions de l'oedème/témoin à 3 h: 3 h after carrageenan; for % d'inhibitions de l'oedème/témoin à 4 h: 4 h after carrageenan; for % d'inhibitions de l'oedème/témoin à 5 h: 5 h after carrageenan
From the text: L'activité anti-inflammatoire de composés selon l'invention a été mise en évidence par l'étude de la réduction d'une réaction inflammatoire induite par injection de carragénine sous l'aponévrose plantaire de la patte postérieure du rat (carragénine Sigma type IV, solution de 1 % dans du soluté isotonique de NaCI).
Le test utilise un appareil de mesure de volume du type "pléthysmométre" constitué d'une structure en U remplie d'eau, une branche du U étant constituée d'un cylindre destiné à recevoir la patte de l'animal (la patte de l'animal est plongée jusqu'à coïncidence de l'articulation tibio-tarsienne avec un repère de base), l'autre branche étant constituée d'une pipette graduée permettant la mesure de volume en mode différentiel.
Selon le protocole expérimental, au temps "t0" on mesure le volume de la patte de l'animal puis on administre le produit de traitement à étudier (les animaux témoins recevant le véhicule d'administration dans les mêmes conditions). Au temps TO + 1 heure, on injecte sous l'aponévrose plantaire de chaque animal 0,05 ml de la solution de carragénine. Le volume de la patte de l'animal est mesuré 3, 4 et 5 heures après injection de la carragénine.
L'activité anti-inflammatoire est calculée en pourcentage de réduction de l'oedème chez les rats traités par rapport aux rats témoins.

[6] = tested on: souris; test: Behavioural despair test (forced swimming, immobility time); settings: 25 mg/kg, given 30 min before 6 min exposure to water
From the text: L'activité antidépressive de composés selon l'invention a été mise en évidence par l'étude du comportement du désespoir chez la souris.
Selon le principe du test, un état dépressif est induit chez la souris en l'obligeant à nager dans un récipient cylindrique étroit d'où elle ne peut s'échapper. Après une période brève d'intense activité, la souris adopte une position immobile caractéristique, facilement identifiable. Les antidépresseurs réduisent ces moments d'immobilité.
Selon le protocole expérimental, les souris sont pré-exposées à l'eau à 25°C pendant 15 minutes, 24 heures avant le test. Pour le test on administre le composé à étudier 30 minutes avant une exposition à l'eau de 6 minutes. Le temps total d'immobilité de la 2e à la 6e minute est mesuré. Les animaux témoins reçoivent le véhicule d'administration du produit de traitement dans les mêmes conditions que les animaux traités.

[7] = DL100, single dose, intraperitoneal
[8] = DLO, single dose, intraperitoneal

CC(C)(C)c1ccc2c(c1)C(C)(c1ccc(F)cc1)CCC2N1CCN(CCOC(=O)Nc2ccccc2)CC1 (stereo not shown) [36.p]
activité par voie orale [1]: actifs par voie orale | Dose limite 100 en [2, 7]: >200 mg/kg | Dose limite 0 en [2, 8]: 100 mg/kg

CC(C)(C)c1ccc2c(c1)C(C)(c1ccccc1)CCC2N1CCOCC1 (stereo not drawn) [39 (cis)]
Degré de protection par rapport aux témoins ([3]; 0,5 mg/kg intraperitoneal): 53% | Degré de protection par rapport aux témoins ([3]; 1 mg/kg intraperitoneal): 58% | Degré de protection par rapport aux témoins ([3]; 2 mg/kg intraperitoneal): 54% | Degré de protection par rapport aux témoins ([3]; 4 mg/kg intraperitoneal): 63% | Degré de protection par rapport aux témoins ([3]; 8 mg/kg intraperitoneal): 89%

CC(C)(C)c1ccc2c(c1)C(C)(c1ccccc1)CCC2N1CCN(CCO)CC1 (stereo not shown) [compound 32]
Variation du temps de réaction moyen en % ([4]; 8mg/kg intraperitoneal): 16% | Degré de protection par rapport aux témoins ([3]; 8 mg/kg intraperitoneal): 41% | Dose limite 0 en ([2]; in vivo, ip): 25 mg/kg | Dose limite 100 en ([2]; in vivo, ip): 100 mg/kg

CC(C)(C)c1ccc2c(c1)C(C)(c1ccc(F)cc1)CCC2N1CCN(CCOC(=O)Nc2cccc3ccccc23)CC1 (stereo not shown) [36.n]
Dose limite 0 en [2, 8]: >200 mg/kg

CC(C)(C)c1ccc2c(c1)C(C)(c1ccc(F)cc1)CCC2N1CCN(CCOC(=O)Nc2ccccc2)CC1 (stereo not drawn) [36.p (trans)]
Variation du temps de réaction moyen en % ([4]; 25 mg/kg intraperitoneal): 63* % | résultats des tests complémentaires (crampes abdominales) [3]: résultats comparables

CC(C)(C)c1ccc2c(c1)C(C)(c1ccc(F)cc1)CCC2N1CCN(CCOC(=O)Nc2ccccc2)CC1 (stereo not drawn) [36.p (cis)]
Degré de protection par rapport aux témoins ([3]; 0,5 mg/kg intraperitoneal): 61% | Degré de protection par rapport aux témoins ([3]; 1 mg/kg intraperitoneal): 44% | Degré de protection par rapport aux témoins ([3]; 2 mg/kg intraperitoneal): 61% | Degré de protection par rapport aux témoins ([3]; 4 mg/kg intraperitoneal): 90% | Degré de protection par rapport aux témoins à 30´ [3]: 89*** | Degré de protection par rapport aux témoins à 1 h [3]: 69*** | Degré de protection par rapport aux témoins à 2 h [3]: 68*** | Degré de protection par rapport aux témoins à 4 h [3]: 46** | Degré de protection par rapport aux témoins à 6 h [3]: 24 | Degré de protection par rapport aux témoins ([3]; 8 mg/kg intraperitoneal): 93%

CC1(c2ccc(F)cc2)CCC(N2CCN(CCOC(=O)Nc3ccccc3)CC2)c2ccccc21 (stereo not drawn) [27.p (trans)]
Degré de protection par rapport aux témoins ([3]; 0,5 mg/kg intraperitoneal): 58% | Degré de protection par rapport aux témoins ([3]; 0,25 mg/kg intraperitoneal): 47% | Degré de protection par rapport aux témoins ([3]; 1 mg/kg intraperitoneal): 70% | Degré de protection par rapport aux témoins ([3]; 2 mg/kg intraperitoneal): 68% | Degré de protection par rapport aux témoins ([3]; 4 mg/kg intraperitoneal): 75% | Degré de protection par rapport aux témoins à 30´ [3]: 84*** | Degré de protection par rapport aux témoins à 1 h [3]: 68*** | Degré de protection par rapport aux témoins à 2 h [3]: 53** | Degré de protection par rapport aux témoins à 4 h [3]: 56*** | Degré de protection par rapport aux témoins à 6 h [3]: 21 | Degré de protection par rapport aux témoins ([3]; 8 mg/kg intraperitoneal): 92% | % d'inhibitions de l'oedème/témoin à 3 h [5]: 40** % | % d'inhibitions de l'oedème/témoin à 4 h [5]: 40*** % | % d'inhibitions de l'oedème/témoin à 5 h [5]: 39** % | activité antidépressive [6]: activité antidépressive certaine

CC1(c2ccc(F)cc2)CCC(N2CCN(CCO)CC2)c2ccccc21 (stereo not shown) [compound 27]
pourcentages de protection ([1]; 60 mg/kg): 86% | Variation du temps de réaction moyen en % ([4]; 15mg/kg intraperitoneal): 29% | Degré de protection par rapport aux témoins ([3]; 4 mg/kg intraperitoneal): 49% | Degré de protection par rapport aux témoins ([3]; 8 mg/kg intraperitoneal): 66% | Degré de protection par rapport aux témoins ([3]; 15 mg/kg intraperitoneal): 92% | pourcentages de protection ([3]; oral administration, 32 mg/kg): 37% | activité par rapport à l'amino-4-trifluoro-méthyl-1 tétraline correspondante ([3]; writhing test, intraperitoneal): activité nettement améliorée | Dose limite 100 en [2, 7]: 200 mg/kg | Dose limite 0 en [2, 8]: 100 mg/kg | doses limites DLO et DL100 par rapport à l'amino-4-trifluorométhyl-1 tétraline correspondante ([2]; intraperitoneal, compared with the corresponding 4-amino-1-trifluoromethyl tetralin): deux fois

CC(C)(C)c1ccc2c(c1)C(C)(c1ccccc1)CCC2N1CCOCC1 (stereo not drawn) [39 (trans)]
Variation du temps de réaction moyen en % ([4]; 25 mg/kg intraperitoneal): 58% | résultats des tests complémentaires (crampes abdominales) [3]: résultats comparables

CC(=O)OCCN1CCN(C2CCC(C)(c3ccc(F)cc3)c3cc(C(C)(C)C)ccc32)CC1 (stereo not shown) [36.a]
activité par voie orale [1]: actifs par voie orale | Variation du temps de réaction moyen en % ([4]; 15mg/kg intraperitoneal): 35% | Degré de protection par rapport aux témoins ([3]; 2 mg/kg intraperitoneal): 52% | Degré de protection par rapport aux témoins ([3]; 4 mg/kg intraperitoneal): 66% | Degré de protection par rapport aux témoins à 30´ [3]: 69*** | Degré de protection par rapport aux témoins à 1 h [3]: 82*** | Degré de protection par rapport aux témoins à 2 h [3]: 60** | Degré de protection par rapport aux témoins à 4 h [3]: 58*** | Degré de protection par rapport aux témoins à 6 h [3]: 38** | Degré de protection par rapport aux témoins ([3]; 8 mg/kg intraperitoneal): 94% | Degré de protection par rapport aux témoins ([3]; 15 mg/kg intraperitoneal): 85% | Dose limite 0 en ([2]; in vivo, ip): 100 mg/kg | Dose limite 100 en ([2]; in vivo, ip): >200 mg/kg

CC1(c2ccc(F)cc2)CCC(N2CCN(CCOC(=O)Nc3ccccc3)CC2)c2ccccc21 (stereo not drawn) [27.p (cis)]
résultats des tests complémentaires (crampes abdominales) [3]: résultats comparables | % d'inhibitions de l'oedème/témoin à 3 h [5]: 35* % | % d'inhibitions de l'oedème/témoin à 4 h [5]: 39** % | % d'inhibitions de l'oedème/témoin à 5 h [5]: 43** %

CC1(c2ccc(F)cc2)CCC(N2CCN(CCOC(=O)Nc3ccccc3)CC2)c2ccccc21 (stereo not shown) [27.p]
Dose limite 0 en [2, 8]: >200 mg/kg
